Results as given in paper PMC8729770, “In Vitro Evaluation of Antimicrobial Peptides from the Black Soldier Fly (Hermetia Illucens) against a Selection of Human Pathogens” (Microbiology Spectrum, 2022).
Like-named read-outs stand apart in the source and are kept apart here. Ends that are not written are not given here.

How the values were obtained:
S. aureus ATCC 6538 = type: cell-based, Staphylococcus aureus; conditions: determined visually, 16 h
Procedure: (§1) To detect antimicrobial activity of the BSF AMPs, the peptide library underwent screening against a panel of microorganisms, consisting of S. aureus ATCC 6538, E. coli ATCC 8739, P. aeruginosa ATCC 9027, C. albicans B59630, and A. fumigatus B42928. Serial dilutions of the peptides were prepared from the DMSO stock solutions in sterile demineralized water in 96-well plates using an automated liquid-handling workstation (Beckman Coulter Biomek 3000) in end volumes of 10 μL. The final in-plate concentration of DMSO was <1%. Peptide concentrations ranged from 64 μM to 0.25 μM for the first evaluation, and from 32 μM to 0.016 μM for the independent repeat. As references, doxycycline (Sigma-Aldrich; S. aureus, E. coli, P. aeruginosa), flucytosine (Sigma-Aldrich; C. albicans), and econazole (Sigma-Aldrich; A. fumigatus) were used. Suspensions of a starting inoculum of 5 × 10^3 CFU/mL (E. coli, S. aureus, C. albicans, A. fumigatus) and 5 × 10^4 CFU/mL (P. aeruginosa) were prepared in MHB (bacterial species) or RPMI medium (fungal species) and 190 μL was added to the 96-well plates. Plates were incubated for 16 h (E. coli, S. aureus, P. aeruginosa), 24 h (C. albicans), or 48 h (A. fumigatus) at 37°C. After incubation, read-out of the antimicrobial activity was performed using a resazurin assay. Then, 20 μL of a 0.01% (wt/vol) resazurin (Sigma-Aldrich) solution was added to each well and plates were incubated for 15 min (S. aureus), 30 min (E. coli), 45 min (P. aeruginosa), 4 h (C. albicans), or 17 h (A. fumigatus) to allow resazurin reduction to take place. Fluorescence was read using a microplate reader (Telix) at λexcitation = 550 nm and λemission = 590. […] MIC values were determined visually. Medium in the wells with no visual growth was plated on MHA to detect the MBC, defined as ≥3 log reduction compared with the growth control.

E. coli ATCC 8739 [1] = type: cell-based, Escherichia coli; conditions: for MBC E. coli ATCC 8739: plated on MHA, ≥3 log reduction vs growth control
Summary of the method: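 Peptides were serially diluted (64–0.25 μM, repeat 32–0.016 μM) against 5 × 10^3 CFU/mL inocula in MHB (bacteria) or RPMI (fungi) at 37°C for 16 h (bacteria), 24 h (C. albicans) or 48 h (A. fumigatus). MIC was read visually with resazurin readout; MBC was defined as ≥3 log reduction on MHA.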

P. aeruginosa ATCC 9027 [2] = type: cell-based, Pseudomonas aeruginosa; conditions: for MBC P. aeruginosa ATCC 9027: plated on MHA, ≥3 log reduction vs growth control
Procedure: as §1

P. aeruginosa ATCC 9027 [3] = assay: Outer membrane permeabilization with N-phenyl-naphthylamine; type: cell-based, Pseudomonas aeruginosa; conditions: compared with 16 μM polymyxin B
Procedure: N-phenyl-naphthylamine (NPN; Tokyo chemical industry [TCI]) was used to study the permeabilization of the OM as described by […] et al. ([81]). Briefly, P. aeruginosa ATCC 9027 was grown until the mid-log phase in MHB. Afterwards, the cells were centrifuged (3,000 × g, 15 min) and resuspended in 5 mM HEPES buffer (pH 7.4) to an OD600 of 0.5. […] Fluorescence was measured every 5 min during 1 h using a microplate reader (Promega) with λexcitation = 350 nm and λemission = 420. Data were normalized based on the fluorescent signal in the presence of 50 μL HEPES buffer, 50 μL NPN, and 100 μL bacteria. Experiments were carried out in triplicate.

P. aeruginosa ATCC 9027 [4] = assay: Inner membrane permeabilization, propidium iodide uptake assay; type: cell-based, Pseudomonas aeruginosa; conditions: 32 μM versus polymyxin B 16 μM
Procedure: To investigate the IM damage induced by the selected AMPs, a PI (Sigma-Aldrich) uptake assay was performed, adapted from […] et al. ([80]). P. aeruginosa ATCC 9027 was grown until the mid-log phase in MHB. The bacteria were centrifuged (3,000 × g, 15 min) and resuspended in 5 mM HEPES (Sigma-Aldrich) buffer (pH 7.4) to an OD600 of 0.5. […] Fluorescence was measured every 5 min during 1 h using a microplate reader (Promega) at λexcitation = 530 nm and λemission = 620. Data were normalized based on the fluorescent signal in the presence of 50 μL HEPES buffer and 150 μL PI bacterial suspension. The assay was carried out in triplicate.

P. aeruginosa ATCC 9027 [5] = assay: Cytoplasmic membrane depolarization assay, diSC3(5); type: cell-based, Pseudomonas aeruginosa; conditions: 32-0.25 μM
Procedure: To study the effects of the peptides on the membrane potential, 3,3′-dipropylthiadicarbocyanine iodide (diSC3(5); TCI) was used as described by Kwon et al. ([82]). P. aeruginosa ATCC 9027 was grown until the mid-log phase in MHB. Afterwards, the cells were centrifuged (3,000 × g, 15 min), washed and resuspended in 5 mM HEPES buffer (pH 7.4) supplemented with 20 mM glucose and 100 mM KCl to an OD600 of 0.2. […] The fluorescent signal was measured at λexcitation = 620 nm and λemission = 670 with a microplate reader (Promega) every 5 min during 1 h. Furthermore, 0.1% Triton-X was used as a positive control. Data were normalized based on the fluorescent signal in the presence of 50 μL supplemented HEPES buffer and 150 μL diSC3(5)-bacterial suspension. The assay was carried out in triplicate.

E. coli ATCC 8739 [6] = conditions: ATCC 8739, 16 h
P. aeruginosa ATCC 9027 [7] = conditions: ATCC 9027, 16 h
[8] = test system: P. aeruginosa ATCC 15692 (PAO1); conditions: ATCC 15692, 16 h
K. pneumoniae ATCC 13883 = conditions: ATCC 13883, 16 h
B. cenocepacia LMG 16656 = conditions: for IC50: read-out: IC50 B. cenocepacia LMG 16656, starting at 32 μM, 10^5 CFU/mL, 48 h, 37°C, resazurin; for MIC B. cenocepacia LMG 16656: visual
[9] = test system: M. tuberculosis ATCC 25177 (H37Ra); conditions: for IC50: read-out: IC50 M. tuberculosis ATCC 25177 (H37Ra), starting at 32 μM, 5×10^5 CFU/mL, 7 days, 37°C, resazurin; for MIC M. tuberculosis ATCC 25177 (H37Ra): visual

## RWYKKIFKPVEKAVQRVRDGTLQALGVAQQAANVYATAQGAQQQRHA-NH2 [Hill-Cec10]
S. aureus ATCC 6538; repeat 1, 64-0.25 μM
  MIC S. aureus ATCC 6538: > 64.00 µM
S. aureus ATCC 6538; repeat 2, 32-0.016 μM
  MIC S. aureus ATCC 6538: > 32.00 µM
E. coli ATCC 8739 [1]; ATCC 8739, 16 h
  MIC E. coli ATCC 8739: 0.50 µM
E. coli ATCC 8739 [1]; repeat 1, 64-0.25 μM, determined visually, 16 h
  MIC E. coli ATCC 8739: 0.25 µM
E. coli ATCC 8739 [1]; repeat 1
  MBC E. coli ATCC 8739: 0.25 µM
E. coli ATCC 8739 [1]; repeat 2
  MBC E. coli ATCC 8739: 32.00 µM
P. aeruginosa ATCC 9027 [2]; repeat 1
  MBC P. aeruginosa ATCC 9027: 16.00 µM
P. aeruginosa ATCC 9027 [2]; repeat 2, 32-0.016 μM, determined visually, 16 h
  MIC P. aeruginosa ATCC 9027: 2.00 µM
P. aeruginosa ATCC 9027 [2]; repeat 2
  MBC P. aeruginosa ATCC 9027: 2.00 µM
P. aeruginosa ATCC 9027 [3]; at 32 μM
  maximum NPN uptake: 75%
P. aeruginosa ATCC 9027 [3]
  concentration to achieve at least 50% NPN uptake: 4 µM
P. aeruginosa ATCC 9027 [4]
  PI uptake (inner membrane permeabilization): exceeds that of a high dose of polymyxin B
P. aeruginosa ATCC 9027 [5]
  cytoplasmic membrane depolarization (diSC3(5) fluorescence): cause cytoplasmic membrane depolarization
E. coli ATCC 8739 [6]
  MIC E. coli ATCC 8739: 1 µM
P. aeruginosa ATCC 9027 [7]
  IC50: 0.75 µM
[8]
  MBC P. aeruginosa ATCC 15692 (PAO1): 16 µM
K. pneumoniae ATCC 13883
  MIC K. pneumoniae: 0.5 to 1 µM
B. cenocepacia LMG 16656; repeat 1
  IC50: > 32 µM
  MIC B. cenocepacia LMG 16656: >32 µM
B. cenocepacia LMG 16656; repeat 2
  IC50: > 32 µM
  MIC B. cenocepacia LMG 16656: >32 µM
[9]; repeat 1
  IC50: > 32 µM
  MIC M. tuberculosis ATCC 25177 (H37Ra): >32 µM
[9]; repeat 2
  IC50: > 32 µM
  MIC M. tuberculosis ATCC 25177 (H37Ra): >32 µM
